Results as given in the kinase profiling compilation of Christmann-Franck et al. (2016).

Experiments:
Experiment in all cases: radiometric filter-binding kinase assay
DYRK3 (human) = DYRK3 (human) (UniProt O43781)
PHKG1 (human) = PHKG1 (human) (UniProt Q16816)
DYRK1A (human) = DYRK1A (human) (UniProt Q13627)
BRSK2 (human) = BRSK2 (human) (UniProt Q8IWQ3)
HIPK1 (human) = HIPK1 (human) (UniProt Q86Z02)
CAMKK2 (human) = CAMKK2 (human) (UniProt Q96RR4)
CLK2 (human) = CLK2 (human) (UniProt P49760)
EPHB2 (human) = EPHB2 (human) (UniProt P29323)
ROCK2 (rat) = conditions: accession and sequence are those of the human protein
HIPK2 (human) = HIPK2 (human) (UniProt Q9H2X6)
CSNK2A1 (human) = CSNK2A1 (human) (UniProt P68400)
MKNK1 (human) = MKNK1 (human) (UniProt Q9BUB5)
JAK2 JH1 JH2 (human) = JAK2 JH1 JH2 (human) (UniProt O60674)
YES1 (human) = YES1 (human) (UniProt P07947)
TBK1 (human) = TBK1 (human) (UniProt Q9UHD2)
CHEK1 (human) = CHEK1 (human) (UniProt O14757)
Chain of CHEK1 (human) (O14757 whole entry, looked up): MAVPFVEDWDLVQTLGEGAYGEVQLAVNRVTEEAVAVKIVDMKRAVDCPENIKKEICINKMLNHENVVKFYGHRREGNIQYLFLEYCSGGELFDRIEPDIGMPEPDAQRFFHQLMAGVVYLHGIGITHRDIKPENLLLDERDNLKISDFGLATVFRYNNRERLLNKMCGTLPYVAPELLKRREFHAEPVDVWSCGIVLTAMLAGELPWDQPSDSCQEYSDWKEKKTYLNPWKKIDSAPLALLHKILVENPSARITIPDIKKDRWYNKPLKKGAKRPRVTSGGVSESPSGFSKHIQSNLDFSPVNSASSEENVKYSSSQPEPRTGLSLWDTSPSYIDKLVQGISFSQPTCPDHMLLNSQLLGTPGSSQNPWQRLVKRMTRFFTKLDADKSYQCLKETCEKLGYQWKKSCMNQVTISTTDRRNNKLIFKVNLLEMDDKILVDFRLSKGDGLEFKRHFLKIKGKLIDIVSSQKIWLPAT

MAPK8 (human) = MAPK8 (human) (UniProt P45983)
FGFR1 (human) = FGFR1 (human) (UniProt P11362)
Chain of FGFR1 (human) (P11362 whole entry, looked up): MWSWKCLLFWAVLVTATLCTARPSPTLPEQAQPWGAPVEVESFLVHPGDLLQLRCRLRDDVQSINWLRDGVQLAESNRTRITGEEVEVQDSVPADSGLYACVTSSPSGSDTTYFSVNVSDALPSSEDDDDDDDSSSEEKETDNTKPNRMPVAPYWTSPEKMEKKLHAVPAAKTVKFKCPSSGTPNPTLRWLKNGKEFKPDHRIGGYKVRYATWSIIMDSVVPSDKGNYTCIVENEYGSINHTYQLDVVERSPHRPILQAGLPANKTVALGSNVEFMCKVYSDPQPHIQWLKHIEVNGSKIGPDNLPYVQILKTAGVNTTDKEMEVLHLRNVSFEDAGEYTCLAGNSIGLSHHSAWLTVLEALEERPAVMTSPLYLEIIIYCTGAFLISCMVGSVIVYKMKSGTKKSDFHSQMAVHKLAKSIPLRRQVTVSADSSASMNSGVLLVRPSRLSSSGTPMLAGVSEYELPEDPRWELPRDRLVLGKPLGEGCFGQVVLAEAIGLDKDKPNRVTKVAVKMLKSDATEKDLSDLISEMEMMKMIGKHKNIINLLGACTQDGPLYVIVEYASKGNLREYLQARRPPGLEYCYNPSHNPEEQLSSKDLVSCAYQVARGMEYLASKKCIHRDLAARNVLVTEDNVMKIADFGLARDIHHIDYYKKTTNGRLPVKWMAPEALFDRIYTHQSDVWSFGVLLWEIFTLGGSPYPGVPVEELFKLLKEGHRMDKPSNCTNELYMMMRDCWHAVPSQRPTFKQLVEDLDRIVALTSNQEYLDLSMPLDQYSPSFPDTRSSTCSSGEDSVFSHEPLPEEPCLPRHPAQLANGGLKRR

IGF1R (human) = IGF1R (human) (UniProt P08069)
Chain of IGF1R (human) (P08069 whole entry, looked up): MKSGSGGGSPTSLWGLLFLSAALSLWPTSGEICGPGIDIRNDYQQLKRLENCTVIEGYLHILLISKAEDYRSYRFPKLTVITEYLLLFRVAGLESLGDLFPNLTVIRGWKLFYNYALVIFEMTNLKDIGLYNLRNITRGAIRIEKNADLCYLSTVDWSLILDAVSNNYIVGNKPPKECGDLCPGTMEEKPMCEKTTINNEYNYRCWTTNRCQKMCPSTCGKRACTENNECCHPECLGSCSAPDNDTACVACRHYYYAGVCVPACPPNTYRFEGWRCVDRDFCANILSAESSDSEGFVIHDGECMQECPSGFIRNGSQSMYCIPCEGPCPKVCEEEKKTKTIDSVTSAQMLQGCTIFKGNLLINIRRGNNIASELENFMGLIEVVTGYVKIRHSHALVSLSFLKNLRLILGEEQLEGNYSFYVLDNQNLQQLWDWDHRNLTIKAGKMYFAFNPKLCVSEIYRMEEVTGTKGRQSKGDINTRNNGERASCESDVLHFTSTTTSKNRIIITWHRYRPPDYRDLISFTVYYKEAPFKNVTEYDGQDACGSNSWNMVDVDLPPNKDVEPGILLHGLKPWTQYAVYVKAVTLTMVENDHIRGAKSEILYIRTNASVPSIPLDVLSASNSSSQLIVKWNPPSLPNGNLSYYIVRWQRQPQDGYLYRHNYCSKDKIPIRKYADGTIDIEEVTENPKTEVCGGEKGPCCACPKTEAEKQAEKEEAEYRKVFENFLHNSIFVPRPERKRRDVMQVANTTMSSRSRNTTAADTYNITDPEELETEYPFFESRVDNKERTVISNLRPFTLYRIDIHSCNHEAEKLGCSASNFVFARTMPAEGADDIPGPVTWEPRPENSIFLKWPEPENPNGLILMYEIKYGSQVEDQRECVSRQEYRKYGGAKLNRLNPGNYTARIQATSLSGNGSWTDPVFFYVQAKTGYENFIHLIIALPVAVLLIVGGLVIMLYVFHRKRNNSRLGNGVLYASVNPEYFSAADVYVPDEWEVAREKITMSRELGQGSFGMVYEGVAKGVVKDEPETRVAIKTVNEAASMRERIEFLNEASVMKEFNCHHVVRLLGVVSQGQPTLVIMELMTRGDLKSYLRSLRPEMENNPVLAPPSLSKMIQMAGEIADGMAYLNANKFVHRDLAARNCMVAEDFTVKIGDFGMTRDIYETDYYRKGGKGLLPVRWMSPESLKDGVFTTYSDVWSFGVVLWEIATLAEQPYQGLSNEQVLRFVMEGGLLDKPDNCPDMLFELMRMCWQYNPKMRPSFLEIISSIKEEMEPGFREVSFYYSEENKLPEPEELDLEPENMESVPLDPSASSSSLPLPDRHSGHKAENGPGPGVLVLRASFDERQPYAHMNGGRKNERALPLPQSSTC

MAPK10 (human) = MAPK10 (human) (UniProt P53779)
GCK (human) = GCK (human) (UniProt Q12851)
Chain of GCK (human) (Q12851 whole entry, looked up): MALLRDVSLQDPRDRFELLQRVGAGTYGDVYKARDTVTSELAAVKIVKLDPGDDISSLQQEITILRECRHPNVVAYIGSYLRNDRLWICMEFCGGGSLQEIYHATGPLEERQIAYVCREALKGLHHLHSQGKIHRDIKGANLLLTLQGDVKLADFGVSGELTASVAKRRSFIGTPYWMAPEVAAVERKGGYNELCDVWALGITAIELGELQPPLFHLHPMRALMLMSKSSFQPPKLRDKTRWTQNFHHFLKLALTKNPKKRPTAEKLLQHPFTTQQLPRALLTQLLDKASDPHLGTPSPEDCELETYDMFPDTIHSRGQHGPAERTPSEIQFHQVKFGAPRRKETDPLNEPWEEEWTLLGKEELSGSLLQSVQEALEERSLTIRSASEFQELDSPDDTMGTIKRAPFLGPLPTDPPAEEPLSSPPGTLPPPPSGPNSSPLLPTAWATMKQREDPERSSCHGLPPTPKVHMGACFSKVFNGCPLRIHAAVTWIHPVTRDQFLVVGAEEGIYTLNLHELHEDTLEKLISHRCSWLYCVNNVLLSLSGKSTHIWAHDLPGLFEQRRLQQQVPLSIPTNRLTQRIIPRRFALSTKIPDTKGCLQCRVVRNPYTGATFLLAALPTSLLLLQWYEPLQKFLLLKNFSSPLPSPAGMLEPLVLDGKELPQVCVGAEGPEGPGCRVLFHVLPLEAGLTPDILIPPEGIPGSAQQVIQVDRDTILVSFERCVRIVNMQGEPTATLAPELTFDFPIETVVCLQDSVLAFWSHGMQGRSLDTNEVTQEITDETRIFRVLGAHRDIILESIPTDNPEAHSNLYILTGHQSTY

PIM3 (human) = PIM3 (human) (UniProt Q86V86)
STK3 (human) = STK3 (human) (UniProt Q13188)
DAPK1 (human) = DAPK1 (human) (UniProt P53355)
MINK1 (human) = MINK1 (human) (UniProt Q8N4C8)
[1] = system: PAK2 (human), Q13177 [T402E]
MAPK11 (human) = MAPK11 (human) (UniProt Q15759)
MAPKAPK5 (human) = MAPKAPK5 (human) (UniProt Q8IW41)
MARK3 (human) = MARK3 (human) (UniProt P27448)
LCK (mouse) = conditions: accession and sequence are those of the human protein
TAOK1 (human) = TAOK1 (human) (UniProt Q7L7X3)
Chain of TAOK1 (human) (Q7L7X3 whole entry, looked up): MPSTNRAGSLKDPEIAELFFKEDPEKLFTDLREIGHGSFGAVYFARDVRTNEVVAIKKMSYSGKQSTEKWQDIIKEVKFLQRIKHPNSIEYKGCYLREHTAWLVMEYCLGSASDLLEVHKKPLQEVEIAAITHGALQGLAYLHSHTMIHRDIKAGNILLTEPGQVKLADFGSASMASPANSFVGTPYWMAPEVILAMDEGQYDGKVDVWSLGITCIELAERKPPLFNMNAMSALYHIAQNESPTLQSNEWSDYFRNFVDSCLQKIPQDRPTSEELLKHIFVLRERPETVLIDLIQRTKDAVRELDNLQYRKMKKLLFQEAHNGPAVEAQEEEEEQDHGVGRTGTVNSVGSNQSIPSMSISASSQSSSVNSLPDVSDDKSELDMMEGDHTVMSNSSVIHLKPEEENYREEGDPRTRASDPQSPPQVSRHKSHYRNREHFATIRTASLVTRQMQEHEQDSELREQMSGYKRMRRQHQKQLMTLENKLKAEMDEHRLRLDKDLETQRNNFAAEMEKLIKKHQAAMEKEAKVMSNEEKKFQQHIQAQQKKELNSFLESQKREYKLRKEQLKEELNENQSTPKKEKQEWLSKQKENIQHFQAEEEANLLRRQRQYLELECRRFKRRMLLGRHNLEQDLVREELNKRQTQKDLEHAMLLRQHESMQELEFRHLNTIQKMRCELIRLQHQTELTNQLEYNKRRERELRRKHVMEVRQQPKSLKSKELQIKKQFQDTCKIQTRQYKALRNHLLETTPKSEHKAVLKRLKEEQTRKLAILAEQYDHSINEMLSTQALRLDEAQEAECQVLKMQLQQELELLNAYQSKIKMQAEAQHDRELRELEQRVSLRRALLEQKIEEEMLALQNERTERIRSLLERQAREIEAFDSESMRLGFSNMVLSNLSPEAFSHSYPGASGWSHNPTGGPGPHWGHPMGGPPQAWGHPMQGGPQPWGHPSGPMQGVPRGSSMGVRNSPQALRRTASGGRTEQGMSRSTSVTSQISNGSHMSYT

[2] = system: SGK1 (human), O00141 [S422D]
SRPK1 (human) = SRPK1 (human) (UniProt Q96SB4)
AURKB (human) = AURKB (human) (UniProt Q96GD4)
CaMK1 (human) = CaMK1 (human) (UniProt Q14012)
MAPK13 (human) = MAPK13 (human) (UniProt O15264)

Chain of CAMKK2 (human) (Q96RR4 whole entry, looked up): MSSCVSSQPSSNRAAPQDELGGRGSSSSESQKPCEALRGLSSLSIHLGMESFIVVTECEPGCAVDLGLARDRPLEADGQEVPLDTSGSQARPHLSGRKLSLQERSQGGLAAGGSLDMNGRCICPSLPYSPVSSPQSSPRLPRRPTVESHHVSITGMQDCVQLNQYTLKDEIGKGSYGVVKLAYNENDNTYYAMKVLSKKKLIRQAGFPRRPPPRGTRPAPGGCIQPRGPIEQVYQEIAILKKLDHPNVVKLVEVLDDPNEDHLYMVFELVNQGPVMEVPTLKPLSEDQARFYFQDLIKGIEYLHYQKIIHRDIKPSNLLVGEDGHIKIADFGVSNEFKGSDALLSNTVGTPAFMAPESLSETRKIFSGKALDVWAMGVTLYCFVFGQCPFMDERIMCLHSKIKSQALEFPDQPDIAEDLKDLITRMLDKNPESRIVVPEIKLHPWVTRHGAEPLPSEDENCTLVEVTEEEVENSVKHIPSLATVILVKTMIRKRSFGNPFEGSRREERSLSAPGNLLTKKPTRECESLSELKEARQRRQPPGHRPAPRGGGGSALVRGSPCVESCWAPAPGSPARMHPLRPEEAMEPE

## CC(C)(C#N)c1ccc(N2C(=O)OCc3cnc4ccc(-c5cnc6ccccc6c5)cc4c32)cc1
DYRK3 (human); compound 1.0 µM
  residual activity: 57%
DYRK3 (human); compound 10.0 µM
  residual activity: 64%
PHKG1 (human); compound 1.0 µM
  residual activity: 97%
PHKG1 (human); compound 10.0 µM
  residual activity: 92%
DYRK1A (human); compound 1.0 µM
  residual activity: 89%
DYRK1A (human); compound 10.0 µM
  residual activity: 83%
BRSK2 (human); compound 1.0 µM
  residual activity: 89%
BRSK2 (human); compound 10.0 µM
  residual activity: 100%
HIPK1 (human); compound 1.0 µM
  residual activity: 94%
HIPK1 (human); compound 10.0 µM
  residual activity: 97%
CAMKK2 (human); compound 1.0 µM
  residual activity: 69%
CAMKK2 (human); compound 10.0 µM
  residual activity: 59%
CLK2 (human); compound 1.0 µM
  residual activity: 75%
CLK2 (human); compound 10.0 µM
  residual activity: 91%
EPHB2 (human); compound 1.0 µM
  residual activity: 93%
EPHB2 (human); compound 10.0 µM
  residual activity: 95%
ROCK2 (rat); compound 1.0 µM
  residual activity: 120%
ROCK2 (rat); compound 10.0 µM
  residual activity: 104%
HIPK2 (human); compound 1.0 µM
  residual activity: 99%
HIPK2 (human); compound 10.0 µM
  residual activity: 114%
CSNK2A1 (human); compound 1.0 µM
  residual activity: 97%
CSNK2A1 (human); compound 10.0 µM
  residual activity: 97%
MKNK1 (human); compound 1.0 µM
  residual activity: 89%
MKNK1 (human); compound 10.0 µM
  residual activity: 90%
JAK2 JH1 JH2 (human); compound 1.0 µM
  residual activity: 26%
JAK2 JH1 JH2 (human); compound 10.0 µM
  residual activity: 31%
YES1 (human); compound 1.0 µM
  residual activity: 92%
YES1 (human); compound 10.0 µM
  residual activity: 93%
TBK1 (human); compound 1.0 µM
  residual activity: 83%
TBK1 (human); compound 10.0 µM
  residual activity: 96%
CHEK1 (human); compound 1.0 µM
  residual activity: 81%
CHEK1 (human); compound 10.0 µM
  residual activity: 100%
MAPK8 (human); compound 1.0 µM
  residual activity: 106%
MAPK8 (human); compound 10.0 µM
  residual activity: 109%
FGFR1 (human); compound 1.0 µM
  residual activity: 98%
FGFR1 (human); compound 10.0 µM
  residual activity: 93%
IGF1R (human); compound 1.0 µM
  residual activity: 89%
IGF1R (human); compound 10.0 µM
  residual activity: 67%
MAPK10 (human); compound 1.0 µM
  residual activity: 87%
MAPK10 (human); compound 10.0 µM
  residual activity: 77%
GCK (human); compound 1.0 µM
  residual activity: 22%
GCK (human); compound 10.0 µM
  residual activity: 11%
PIM3 (human); compound 1.0 µM
  residual activity: 67%
PIM3 (human); compound 10.0 µM
  residual activity: 55%
STK3 (human); compound 1.0 µM
  residual activity: 64%
STK3 (human); compound 10.0 µM
  residual activity: 49%
DAPK1 (human); compound 1.0 µM
  residual activity: 84%
DAPK1 (human); compound 10.0 µM
  residual activity: 88%
MINK1 (human); compound 1.0 µM
  residual activity: 72%
MINK1 (human); compound 10.0 µM
  residual activity: 55%
[1]; compound 1.0 µM
  residual activity: 95%
[1]; compound 10.0 µM
  residual activity: 107%
MAPK11 (human); compound 1.0 µM
  residual activity: 89%
MAPK11 (human); compound 10.0 µM
  residual activity: 103%
MAPKAPK5 (human); compound 1.0 µM
  residual activity: 82%
MAPKAPK5 (human); compound 10.0 µM
  residual activity: 89%
MARK3 (human); compound 1.0 µM
  residual activity: 93%
MARK3 (human); compound 10.0 µM
  residual activity: 102%
LCK (mouse); compound 1.0 µM
  residual activity: 78%
LCK (mouse); compound 10.0 µM
  residual activity: 98%
TAOK1 (human); compound 1.0 µM
  residual activity: 91%
TAOK1 (human); compound 10.0 µM
  residual activity: 94%
[2]; compound 1.0 µM
  residual activity: 96%
[2]; compound 10.0 µM
  residual activity: 82%
SRPK1 (human); compound 1.0 µM
  residual activity: 90%
SRPK1 (human); compound 10.0 µM
  residual activity: 89%
AURKB (human); compound 1.0 µM
  residual activity: 93%
AURKB (human); compound 10.0 µM
  residual activity: 82%
CaMK1 (human); compound 1.0 µM
  residual activity: 73%
MAPK13 (human); compound 1.0 µM
  residual activity: 96%
MAPK13 (human); compound 10.0 µM
  residual activity: 95%

## Cc1nc(-c2ccc(OCC(C)C)c(C#N)c2)sc1C(=O)O
DYRK3 (human); compound 1.0 µM
  residual activity: 84%
DYRK3 (human); compound 10.0 µM
  residual activity: 65%
PHKG1 (human); compound 1.0 µM
  residual activity: 85%
PHKG1 (human); compound 10.0 µM
  residual activity: 83%
DYRK1A (human); compound 1.0 µM
  residual activity: 102%
DYRK1A (human); compound 10.0 µM
  residual activity: 85%
BRSK2 (human); compound 1.0 µM
  residual activity: 100%
BRSK2 (human); compound 10.0 µM
  residual activity: 86%
HIPK1 (human); compound 1.0 µM
  residual activity: 90%
HIPK1 (human); compound 10.0 µM
  residual activity: 95%
CAMKK2 (human); compound 1.0 µM
  residual activity: 92%
CAMKK2 (human); compound 10.0 µM
  residual activity: 73%
CLK2 (human); compound 1.0 µM
  residual activity: 81%
CLK2 (human); compound 10.0 µM
  residual activity: 77%
EPHB2 (human); compound 1.0 µM
  residual activity: 122%
EPHB2 (human); compound 10.0 µM
  residual activity: 102%
ROCK2 (rat); compound 1.0 µM
  residual activity: 96%
ROCK2 (rat); compound 10.0 µM
  residual activity: 80%
HIPK2 (human); compound 1.0 µM
  residual activity: 100%
HIPK2 (human); compound 10.0 µM
  residual activity: 98%
CSNK2A1 (human); compound 1.0 µM
  residual activity: 87%
CSNK2A1 (human); compound 10.0 µM
  residual activity: 71%
MKNK1 (human); compound 1.0 µM
  residual activity: 106%
MKNK1 (human); compound 10.0 µM
  residual activity: 95%
JAK2 JH1 JH2 (human); compound 10.0 µM
  residual activity: 83%
YES1 (human); compound 1.0 µM
  residual activity: 117%
TBK1 (human); compound 1.0 µM
  residual activity: 127%
CHEK1 (human); compound 1.0 µM
  residual activity: 85%
CHEK1 (human); compound 10.0 µM
  residual activity: 86%
MAPK8 (human); compound 1.0 µM
  residual activity: 95%
MAPK8 (human); compound 10.0 µM
  residual activity: 103%
FGFR1 (human); compound 10.0 µM
  residual activity: 103%
IGF1R (human); compound 1.0 µM
  residual activity: 93%
IGF1R (human); compound 10.0 µM
  residual activity: 89%
MAPK10 (human); compound 1.0 µM
  residual activity: 99%
MAPK10 (human); compound 10.0 µM
  residual activity: 92%
GCK (human); compound 1.0 µM
  residual activity: 85%
GCK (human); compound 10.0 µM
  residual activity: 86%
PIM3 (human); compound 1.0 µM
  residual activity: 66%
PIM3 (human); compound 10.0 µM
  residual activity: 19%
STK3 (human); compound 1.0 µM
  residual activity: 73%
STK3 (human); compound 10.0 µM
  residual activity: 75%
DAPK1 (human); compound 1.0 µM
  residual activity: 85%
DAPK1 (human); compound 10.0 µM
  residual activity: 60%
MINK1 (human); compound 10.0 µM
  residual activity: 104%
[1]; compound 1.0 µM
  residual activity: 95%
[1]; compound 10.0 µM
  residual activity: 90%
MAPK11 (human); compound 1.0 µM
  residual activity: 84%
MAPK11 (human); compound 10.0 µM
  residual activity: 91%
MAPKAPK5 (human); compound 1.0 µM
  residual activity: 87%
MAPKAPK5 (human); compound 10.0 µM
  residual activity: 82%
MARK3 (human); compound 1.0 µM
  residual activity: 91%
MARK3 (human); compound 10.0 µM
  residual activity: 87%
LCK (mouse); compound 1.0 µM
  residual activity: 110%
LCK (mouse); compound 10.0 µM
  residual activity: 102%
TAOK1 (human); compound 1.0 µM
  residual activity: 105%
TAOK1 (human); compound 10.0 µM
  residual activity: 101%
[2]; compound 1.0 µM
  residual activity: 99%
[2]; compound 10.0 µM
  residual activity: 98%
SRPK1 (human); compound 1.0 µM
  residual activity: 99%
SRPK1 (human); compound 10.0 µM
  residual activity: 89%
AURKB (human); compound 1.0 µM
  residual activity: 95%
AURKB (human); compound 10.0 µM
  residual activity: 96%
CaMK1 (human); compound 1.0 µM
  residual activity: 98%
CaMK1 (human); compound 10.0 µM
  residual activity: 93%
MAPK13 (human); compound 1.0 µM
  residual activity: 103%
MAPK13 (human); compound 10.0 µM
  residual activity: 97%
